Test [1] has as its target T1, PqsR (Pseudomonas aeruginosa, UniProt Q9I4X0). Briefly: biochemical. The format is binding. The arrangement: H6SUMOPqsRc87 and T265A mutant H6SUMOPqsRc87 for ITC studies was expressed; made in house; host or cells: E. coli BL21 (λDE3). The procedure:
3.2 Expression and Purification of H6SUMOPqsRc87
H6SUMOPqsRc87 and T265A mutant H6SUMOPqsRc87 for ITC studies was expressed and purified as previously reported.[8,9] Briefly, E. coli BL21 (λDE3) transfected with the pSUMO3_ck4_pqsRC87 or pSUMO3_ck4_T265ApqsRC87 plasmid[8] were grown in LB medium containing 50 µg mL-1 kanamycin at 37 °C to an OD600 of approximately 0.8 and expression was induced with 0.2 mM IPTG for 16 h at 16 °C. The protein was purified using nickel affinity chromatography in a one step gradient.
ITC titrations were performed as described before.[8,9] Briefly, ITC experiments were carried out using an ITC200 instrument (Microcal Inc., GE Healthcare). The titrations were performed on 50-150 µM H6SUMO-PqsRC87 in the 200 µL sample cell using 19 injections of 2 µL ligand solution (0.5-1.5 mM) every 180 s. The data were collected and the area under each peak was integrated. To correct for heats of dilution and mixing the final base line consisting of small peaks of the same size at the end of the titration were substracted.
Target sequence in this assay (Q9I4X0 87-332): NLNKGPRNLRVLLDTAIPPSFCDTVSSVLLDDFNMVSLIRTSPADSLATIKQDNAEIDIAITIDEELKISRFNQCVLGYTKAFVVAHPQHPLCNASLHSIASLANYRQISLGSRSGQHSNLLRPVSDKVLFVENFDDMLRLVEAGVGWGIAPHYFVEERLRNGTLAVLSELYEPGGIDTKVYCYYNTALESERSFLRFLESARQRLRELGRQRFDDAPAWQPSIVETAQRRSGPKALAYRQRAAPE

Test [2] has as its target T1, PqsR. In words: PqsR β-galactosidase reporter gene assay in E. coli. The format is cell-based. The settings on record: for IC50 (inverse agonistic/antagonistic activity) / Inverse agonistic/antagonistic activity at a given concentration: in the presence of 50 nM PQS; for IC50 (inverse agonistic/antagonistic activity): n.i.=no inhibition (activity≤15 %); for Inverse agonistic/antagonistic activity at a given concentration: @ 100 μM. The arrangement: expressed in transfected cells; host or cells: E. coli DH5α carrying plasmid pEAL08-2. Here is the method:
5. E. coli reporter-gene assay & dose-response curves
PqsR Reporter gene assay in E. coli. The inverse agonistic/antagonistic activity of potential PqsR ligands was evaluated in a β-galactosidase reporter gene assay in E. coli as previously described.[26] In short, test compounds were co-incubated with E. coli DH5α cells containing the plasmid pEAL08-2,[27] which expresses PqsR and the β-galactosidase LacZ under the control of the pqsA promoter. The inverse agonistic/antagonistic activity of compounds was measured in the presence of 50 nM PQS. After incubation, galactosidase activity was quantified photometrically and expressed as ratio of controls. The given IC50 values represent the mean of at least two independent experiments using at least eight different concentrations of test compound with n = 4. Non-linear regression analysis was done using the log (inhibitor) vs response model included in the GrapPad Prism 5.0 software package.
Target sequence in this assay (Q9I4X0 whole entry): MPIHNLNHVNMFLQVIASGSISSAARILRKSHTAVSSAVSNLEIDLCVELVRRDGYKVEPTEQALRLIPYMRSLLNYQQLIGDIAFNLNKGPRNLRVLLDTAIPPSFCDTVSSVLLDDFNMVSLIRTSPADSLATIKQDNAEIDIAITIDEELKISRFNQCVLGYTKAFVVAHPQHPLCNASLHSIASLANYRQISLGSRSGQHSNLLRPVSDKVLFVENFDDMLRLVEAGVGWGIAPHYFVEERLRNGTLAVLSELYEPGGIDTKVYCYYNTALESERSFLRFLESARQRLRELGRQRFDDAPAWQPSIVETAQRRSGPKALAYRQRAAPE

The test system of test [3] is pyocyanin in P. aeruginosa PA14. Briefly: Pyocyanin assay in P. aeruginosa PA14 cultures. It counts as cell-based, Pseudomonas aeruginosa PA14. The conditions noted are these: Pseudomonas aeruginosa; for IC50: PA14, read-out: Pyocyanin IC50, PA14 cultures, photometric quantification, mean of at least two independent experiments, SD<25 %. Here is the method: 6. Effects in P. aeruginosa
Pyocyanin Assay. The inhibition of virulence factor pyocyanin was measured as described previously[26] following a procedure established by Essar et al.[28] Briefly, Pseudomonas aeruginosa PA14 cultures were grown in the presence of inhibitors or DMSO as control for 16 h. Pyocyanin was determined photometrically after extraction of the cultures with chloroform and re-extraction with 0.2 M HCl. Protonated red colored pyocyanin was determined by measuring OD520 and normalizing to OD600. None of the compound impaired bacterial viability as observed by the OD600 parameter. Inhibition values were expressed in relation to the DMSO control. Each value is the mean of at least two independent experiments with n=3.
The given IC50 values represent the mean of at least two experiments using at least five different concentrations. Curve fitting was performed using the log (inhibitor) vs response model with constrained bottom = 0 and top =100 (GraphPad Prism 5.0).
Figure S4: Inhibition of virulence factor pyocyanin was evaluated in the clinical isolate PA14.
Representative dose-response curves a) compound 11 b) compound 20. Black dotes (•) represent the reduction of pyocyanin in presents of a given compound concentration relative to DMSO control (= 0 %). The continuous black line is the none -linear regression analysis to […]
(1 picture or pasted object on this page, not shown here)

In test [4] the test system is PqsR. The arrangement: method as in PMID 24338917. The settings on record: PQS-mediated effect in E. coli-based assay; read-out: EC 50(E.coli); cited from earlier work.
Test [5] concerns the target T1, PqsR. In words: PQS-mediated effect in P. aeruginosa. The format is cell-based. The arrangement: expressed in transfected cells; host or cells: E. coli DH5α carrying plasmid pEAL08-2.
Target sequence in this assay (Q9I4X0 whole entry): as above
Test [6] concerns the target PqsR ligand binding domain. The arrangement: method as in PMID 23713667. The conditions noted are these: native agonist PQS towards the ligand binding domain; cited from earlier work.
[7] abbreviates: Table 1, EE=−ΔH/(heavy atom count).
Where [8] appears, read: Table 1, LE=−ΔG/(heavy atom count).
[9] abbreviates: PA14, read-out: Pyocyanin inhibition.

Values joined by “and” are separate entries in the source; they are usually repeats but may differ in a detail not shown here. Equal entries are not always repeated.

On PqsR [1], `Nc1ccc(Br)cn1` [Compound 4] showed a Kd of over 50 µM.

Take `Nc1cccc(Br)n1` [Compound 3]: at PqsR [2], the “IC50 (inverse agonistic/antagonistic activity)” value is listed as “did not show significant antagonistic activity”. In addition, binding on PqsR [1] was characterised by a dissociation constant (Kd) of 10 ± 1.3 µM. In addition, at PqsR [1] (setting [7]), the EE is 1.17 kcal/mol. Moreover, at PqsR [1] (Table 1, ITC at 298 K), the ΔG is -6.8 ± 0.1 kcal/mol, the ΔH was -9.3 ± 0.4 kcal/mol and the “−TΔS” value worked out at 2.5 ± 0.4 kcal/mol. Also, the LE at PqsR [1] (setting [8]) was 0.85 kcal/mol.

Take `CC(=O)Nc1cccc(C(F)(F)F)n1` [Compound 8]: the “IC50 (inverse agonistic/antagonistic activity)” value at PqsR [2] is reported as “n.i”. Besides, the “K D (ITC)” value on PqsR [1] (Table 1, ITC at 298 K, mean±SD, at least two independent experiments, >50 = no heat release detectable at solubility maximum) is listed as “abolished the affinity”.

`Nc1cc(NCC(=O)Nc2ccc(F)cc2)cc(C(F)(F)F)n1` [Compound 22]: the inhibition at 100 µM in test [3] (setting [9]) amounted to 37%.

Regarding `Nc1nnc(-c2cccc(C(F)(F)F)c2)o1` [Compound 2], on PqsR [1], the dissociation constant (Kd) came to 1.3 ± 0.3 µM. This compound came in with an EE at PqsR [1] (setting [7]) of 0.53 kcal/mol. Further, on PqsR [1] (Table 1, ITC at 298 K), the ΔG is -8.0 ± 0.1 kcal/mol, the ΔH was -8.5 ± 0.5 kcal/mol and the “−TΔS” value was 0.4 ± 0.6 kcal/mol. Also, the LE at PqsR [1] (setting [8]) came out at 0.50 kcal/mol.

Compound `Nc1cc(NCCc2ccc(F)cc2)cc(C(F)(F)F)n1` [Compound 19] showed a Kd on PqsR [1] of 4.7 ± 2.3 µM. Moreover, at PqsR [1] (Table S1), the “-TΔS” value is 6.1 ± 0.7 kcal/mol and the ΔG was -7.4 ± 0.3 kcal/mol. At PqsR [1] (Table S1, enthalpic efficiency), this compound came in with an EE of 0.64 kcal/mol. On PqsR [1] (Table S1, ligand efficiency), this compound returned an LE of 0.35 kcal/mol.

In turn, `Nc1cc(Br)ccn1` [Compound 5] registered a dissociation constant Kd at PqsR [1] of 21.3 ± 3.4 µM. On PqsR [1] (setting [7]), this compound yielded an EE of 0.72 kcal/mol. On PqsR [1] (Table 1, ITC at 298 K), the ΔG was -6.4 ± 0.1 kcal/mol, the ΔH was -5.8 ± 0.1 kcal/mol and the “−TΔS” value was -0.6 ± 0.2 kcal/mol. The compound further returned an LE on PqsR [1] (setting [8]) of 0.80 kcal/mol.

Regarding `Nc1cc(NCCOc2ccc(F)cc2)cc(C(F)(F)F)n1` [Compound 21], the inhibition at 100 µM in test [3] (setting [9]) turned out to be 58%. Besides, the “drop in antagonistic activity versus 20” value on PqsR [2] (E. coli reporter gene assay, compared with 20) amounted to 20 fold.

Take `Nc1cc(N2CCC(c3ccc(F)cc3)C2)cc(C(F)(F)F)n1` (stereo not drawn) [Compound 18]: the “IC50 (inverse agonistic/antagonistic activity)” value on PqsR [2] is “n.i”.

As to `CCCCCCCc1[nH]c2ccc([N+](=O)[O-])cc2c(=O)c1C(N)=O` [Compound R2, reference compound], in test [3], the concentration for half-maximal inhibition (IC50) worked out at 2 µM.

Regarding `CCCCCCCc1[nH]c2ccccc2c(=O)c1O` [PQS, 2‐heptyl‐3‐hydroxy‐4(1H)‐quinolone], the EC50 was 0.0063 µM in the test on PqsR [4] and 0.024 µM at PqsR [5]. Also, the Kd in test [6] is 1.2 ± 0.3 µM.

Compound `Nc1cc(NCc2ccc(F)cc2F)cc(C(F)(F)F)n1` [Compound 13] displayed a Kd on PqsR [1] of 1.3 ± 0.3 µM. Moreover, on PqsR [1] (Table S1), the “-TΔS” value was 3.5 ± 0.8 kcal/mol and the ΔG is -8.0 ± 0.1 kcal/mol. Also, the EE at PqsR [1] (Table S1, enthalpic efficiency) is 0.55 kcal/mol. Also, on PqsR [1] (Table S1, ligand efficiency), the LE came out at 0.40 kcal/mol.

Take `Nc1cccc(C(F)(F)F)n1` [Compound 7]: the inhibition at 250 µM in test [3] (setting [9]) was determined as 43%. The compound further yielded an equilibrium dissociation constant (Kd) on PqsR [1] of 3.1 ± 0.5 µM. Moreover, the EE on PqsR [1] (setting [7]) was determined as 1.05 kcal/mol. On PqsR [1] (Table 1, ITC at 298 K), the ΔG is -7.5 ± 0.1 kcal/mol; the ΔH was -11.5 kcal/mol and -11.5 ± 0.9 kcal/mol; the “−TΔS” value was 3.7 ± 1 kcal/mol. The compound further registered an LE at PqsR [1] (setting [8]) of 0.70 kcal/mol.

`Nc1cc(NCc2ccccc2)cc(C(F)(F)F)n1` [Compound 12] displayed a dissociation constant Kd on PqsR [1] of 1.4 ± 0.5 µM. For the same compound, on PqsR [1] (Table S1), the “-TΔS” value was found to be 3.2 ± 0.5 kcal/mol and the ΔG is -8.1 ± 0.3 kcal/mol. The EE at PqsR [1] (Table S1, enthalpic efficiency) came out at 0.57 kcal/mol. This compound also showed an LE at PqsR [1] (Table S1, ligand efficiency) of 0.43 kcal/mol.

`CC(C)(C)c1ccc(C(=O)NO)cc1` [Compound 1] had a dissociation constant Kd at PqsR [1] of 4.1 ± 0.6 µM. This compound also showed an EE on PqsR [1] (setting [7]) of 0.63 kcal/mol. Further, at PqsR [1] (Table 1, ITC at 298 K), the ΔG is -7.4 ± 0.1 kcal/mol, the ΔH is -8.9 ± 0.2 kcal/mol and the “−TΔS” value amounted to 1.5 ± 0.3 kcal/mol. Further, at PqsR [1] (setting [8]), the LE is 0.53 kcal/mol.

Turning to `Nc1cc(-c2ccc(F)cc2)cc(C(F)(F)F)n1` [Compound 10], the “Inverse agonistic/antagonistic activity at a given concentration” value at PqsR [2] is reported as 29 % @ 100 μM.

Turning to `Nc1ncccc1Br` [Compound 6], at PqsR [1], the Kd is over 50 µM.

Take `Nc1cc(C#CC2CC2)cc(C(F)(F)F)n1` [Compound 9]: the “IC50 (inverse agonistic/antagonistic activity)” value at PqsR [2] was “n.i”. For the same compound, the Kd at PqsR [1] was 7.5 ± 0.1 µM. Also, at PqsR [1] (Table S1), the “-TΔS” value was -3.8 ± 0.6 kcal/mol; the ΔG is -6.9 ± 0.0 kcal/mol; the ΔH was -3.7 ± 0.6 kcal/mol and -3.7 kcal/mol. The same compound yielded an EE on PqsR [1] (Table S1, enthalpic efficiency) of 0.23 kcal/mol. Further, at PqsR [1] (Table S1, ligand efficiency), the LE was found to be 0.43 kcal/mol.

With `Nc1cc(NC(=O)c2ccc(F)cc2)cc(C(F)(F)F)n1` [Compound 16], at PqsR [2], the “Inverse agonistic/antagonistic activity at a given concentration” value was found to be 35±5 % @ 100 μM.

Regarding `O=C(CSc1nc2ccc([N+](=O)[O-])cc2[nH]1)Nc1ccc(Oc2ccccc2)cc1` [Compound R1, reference compound], the IC50 in test [3] was 0.12 µM.

As a reminder, the Kd is the equilibrium constant for the complex coming apart. Broadly, the inhibition is the share of the control response that was lost under treatment. By IC50 is commonly meant the concentration that gives 50% inhibition.

These data come from publication PMC7004148, “Flexible Fragment Growing Boosts Potency of Quorum‐Sensing Inhibitors against Pseudomonas aeruginosa Virulence” (Chemmedchem, 2019).
